Article PMC12037037 (Proceedings of the National Academy of Sciences of the …, 2025)
Entries after “also recorded” stand apart in the source; their conditions may differ.

Tests used:
[1] = biological target: 5-HT2 receptors (5-HT2A, 5-HT2B, 5-HT2C); assay: Competitive radioligand binding assays at 5-HT2 receptors; settings: read-out: Ki range, entire family of 5-HT2 receptors; free base
Description: Radioligand binding (RLB) (top) and IP1 functional assays
(bottom) for 5-HT2A (A), 5-HT2B (B), and 5-HT2C (C) receptors. (D) The PathHunter® β-arrestin assay was used to
HT2A receptors. Data represent the mean ± SEM of 2–6 biological replicates (performed in duplicate), with the sole
exception that the β-arrestin data for (–)-JRT represents a single biological replicate averaged from 2 technical replicates.
Drugs. Many of the drugs used in these studies were purchased from commercial sources including (+)-amphetamine sulfate (Sigma Aldrich, 1180004), ketamine hydrochloride (Spectrum, K1068), and ketanserin (APExBIO, B2248).
JRT were synthesized in-house and judged to be analytically pure based on NMR and LC-MS data. For cell culture experiments, VEH = 0.1% (agonist studies) or 0.2% (antagonist studies) molecular biology grade dimethyl sulfoxide (Sigma-Aldrich).
Fumarate salts of (+)-JRT and (–)-JRT were used for all biological studies unless noted otherwise.

male C57BL/6J mice = assay: Head-twitch antagonism of an LSD dose response (Transpharmation); assay type: in vivo; settings: +JRT PreTx (1 mg/kg IP, 30 min prior) then VEH (1% DMSO); -JRT 0.7 ± 0.3
Description: Head-Twitch Response Assay. The HTR assay was performed using equal numbers of male and female C57BL/6J mice.
The mice were obtained from The Jackson Laboratory (Sacramento, CA) and were approximately 8 – 12 weeks old at the time of the experiments. After compound administration, animals were placed into an empty arena (40 cm x 40 cm) and filmed for 20 min. The arena was cleaned with 70% ethanol between trials.

male Sprague Dawley rats = assay: Rat forced swim test (FST); assay type: in vivo; settings: for Swimming (Figure 6B) / Immobility (Figure 6B): 24 h after administration; for Swimming (Figure 6B): VEH 22.10 ± 1.929; for Immobility (Figure 6B): VEH 37.20 ± 1.867
Description: Reads were aligned to the GRCm39 genome assembly using STAR, processed with Picard, and counted with the Subread software. Transcript inclusion criteria consisted of a minimum raw expression level of 25 transcripts in a minimum of 4 samples. Surrogate variable analysis was conducted with the sva package 2023 release v3.5.0 in R and normalization and differential expression analysis was performed with DESeq2 v4.3 with a baseMean threshold of 10. Heatmaps were created with the pheatmap v1.0.12 with sample-wise z-scores plotted and both row and column grouping allowed using pearson's distances and ward.D for clustering. Gene-wise selection criteria for heatmaps were a baseMean expression threshold of 50 to focus on robustly expressed genes, p value < 0.05, and presence in the top 250 genes sorted by absolute value of log2FC. Additionally, z score was capped at 2 for visualization purposes. Schizophrenia gene sets were extracted from a recent TWAS study (30).
For Figure S8G, the TWAS set was filtered for FDR < 0.01. Permutation testing was conducted to quantify the overlap of top genes from schizophrenia TWAS with the perm_test function from the bulkWarehouse package 2023 release v1.2.7.
Briefly, the intersection of top differentially expressed genes and top TWAS genes is compared to an empirical distribution created by calculating the intersection with our top DEGs when randomly sampling candidate genes from our dataset equal to the size of the TWAS sample. Selection criteria from the TWAS include an expression level of 25 transcripts in a minimum of 4 samples in our dataset, FDR < 0.01 from the TWAS and top 250 sorted by absolute value of log2FC. Selection criteria from our gene set were an expression level of 25 transcripts in a minimum of 4 samples, p value < 0.1 and top 250 sorted by absolute value of log2FC.
Rat Forced Swim Test (FST). This study was performed by Psychogenics (Paramus, NJ). Male Sprague Dawley rats were purchased from Envigo (Indianapolis, IN), and were 8 weeks old at the time of the experiments. Upon receipt, they were assigned unique identification numbers (tail marked) and group housed in ventilated cages with 3 rats per cage. All animals […]
remained housed in groups of three for the remainder of the study. All rats were acclimated to the colony room for up to one week prior to dosing. During the period of acclimation, rats were examined and handled daily, and weighed to assure adequate health and suitability. The room temperature was maintained between 20 °C and 23 °C with a relative humidity of 30%–70%. Lab Rodent Diet 5001 (W.F. Fisher, Cat # 11015) and water were provided ad libitum. Animals were randomly assigned across treatment groups. All testing was performed during the light phase of the light/dark cycle. Behavioral testing was conducted according to established protocols approved by the IACUC committee and PGI Standard Operation Procedures (SOP). Each forced swim chamber was constructed of clear acrylic (height = 40 cm; diameter = 20.3 cm). Only one rat was placed in the swim chamber at a time for each swim test. The water was changed and the chamber cleaned between each animal. The water depth was 16 cm in the first swim session (pre-test) and 30 cm in the second swim session (test). The water was maintained at 23 °C ± 1 °C for all swim sessions. At the end of each swim test rats were dried with paper towels and returned to the home cage. All animals were carefully monitored to ensure their safety in the swim test and any animal unable to maintain a posture with its nose above water was immediately removed from the water and not used further in the study. Animals were first subjected to a pre-test for 15 min. Immediately after the pre-test, they were administered compounds or VEH via i.p. injection (1 ml/kg). Racemic ketamine hydrochloride (10 mg/kg) was used as a positive control. A salt correction factor of 1.36 was used when preparing formulations of (+)-JRT to ensure that the dose corresponded to that of the free base. […]

[2] = biological target: T1, U2OS cells expressing 5-HT2ARs (β-arrestin recruitment) (Homo sapiens, UniProt P28223); assay: PathHunter β-arrestin agonist assay; assay type: cell-based; settings: free base
T1 construct: host or cells: U2OS
Description: (D) The PathHunter® β-arrestin assay was used to
b-Arrestin Activation (PathHunter®). The 5-HT2AR PathHunter® b-arrestin agonist assay was performed at Eurofins
DiscoverX (Frement, CA, Catalog # 86-0001P-2090AG).
The PathHunter® β-arrestin assay monitors the activation of a GPCR in a homogenous, non-imaging assay format
using a technology developed by DiscoverX called Enzyme Fragment Complementation (EFC) with β-galactosidase (β-Gal)
as the functonal reporter.
PK and EA are then expressed as fusion proteins in U2OS cells,
with PK fused to the GPCR of interest, and EA fused to b-arrestin. When the target GPCR is activated and β-arrestin is

[3] = test system: female C57BL/6J mice, medial prefrontal cortex; assay: In vivo spinogenesis and synaptogenesis (S3EM, layer 1 mPFC); settings: 24 h
[4] = biological target: wild type human 5-HT2A receptor (psychLight2, PSYLI2 cells) (Homo sapiens, UniProt P28223); assay: PsychLight assay, wild type; assay type: cell-based
Description: PsychLight Assays. Psychlight assays were performed using a previously published method (15) with slight modifications.
Briefly, a solution of PSYLI2 cells suspended in DMEM containing 10% FBS with 5% penicillin-streptomycin was added to
poly-D-lysine-coated glass bottom 96-well plates. The cells were plated at a density of 60,000 cells/well for the inner 60
wells and 90,000 cells/well for the outer 36 wells and incubated at 37°C with 5% CO2 for 18–24 h prior to each experiment.
On the day of each experiment, the DMEM solution was replaced with 100 µL/well Hoechst solution (2 µM in HBSS) and
incubated for 30 min at 37°C with 5% CO2. Plates were then washed 3x 200 µL HBSS and replaced with 160 µL/well of
assay buffer (HBSS with 0.5 mM HEPES buffer, adjusted to pH = 7.4 with 1 M NaOH) and incubated for 30 min (37°C, 5%
CO2). The cells were then imaged on a Thermo Scientific CellInsight CX7 LZR High Content Analysis Platform at 10X
(37°C, 5% CO2). Images from nine regions of interest (ROI) per well were obtained following the default ROI pattern with
no bias to location and no overlap of the ROIs. Baseline images were collected prior to drug addition. […]
activation was quantified using the built-in Target Validation Assay (version 6.0.1.4021) on the Thermo Scientific HCS Studio […]
objects (psychLight signal) were defined as signal within 12 pixels of the primary objects. PsychLight signal was calculated […]

[5] = test system: Thy1-EGFP mice, layer 2/3 of the mPFC; assay: In vivo spinogenesis after chronic corticosterone administration; settings: 24 h, mean ± SEM
Description: In Vivo Spinogenesis after chronic corticosterone administration. Male and female Thy1-EGFP mice were given 1 week to acclimate to the new vivarium, then transferred to new cages (individually housed). Once individually housed, the mice were administered corticosterone (20 mg/kg; IP) in DMSO (2 mL/kg) or gently handled daily for 20 days. On day 21, mice were treated with VEH (saline) or (+)-JRT (1 mg/kg; IP). After 24 h, mice were anesthetized with isoflurane and transcardially perfused with paraformaldehyde (PFA, 4% in PBS, 7.4 pH). After extraction of the brains, samples were fixed in 4% PFA at 4° C overnight. The brains were cryo-protected by immersion in a 15% sucrose solution (15% sucrose in PBS w/v) overnight. Next, samples were placed in 30% sucrose solution (30% sucrose in PBS w/v) for at least 1 day. Samples were then embedded in optimal cutting temperature compound (OCT), sliced into 100 µm coronal sections using a cryostat, and mounted on slides which were left in the dark overnight to dry. Coverslips were mounted onto microscope slides using ProLong Gold. Slides were imaged on a Nikon HCA Spinning Disc confocal microscope equipped with a 100x/NA 1.45 oil objective. Images of dendrites and dendritic spines within layer 2/3 of the mPFC were captured and manually counted by a trained experimenter blinded to treatment conditions.

[6] = test system: E18 rat embryonic cortical neurons (DIV18-19); assay: Spinogenesis assay using cultured rat cortical neurons; assay type: cell-based

T1 sequence (P28223 whole entry): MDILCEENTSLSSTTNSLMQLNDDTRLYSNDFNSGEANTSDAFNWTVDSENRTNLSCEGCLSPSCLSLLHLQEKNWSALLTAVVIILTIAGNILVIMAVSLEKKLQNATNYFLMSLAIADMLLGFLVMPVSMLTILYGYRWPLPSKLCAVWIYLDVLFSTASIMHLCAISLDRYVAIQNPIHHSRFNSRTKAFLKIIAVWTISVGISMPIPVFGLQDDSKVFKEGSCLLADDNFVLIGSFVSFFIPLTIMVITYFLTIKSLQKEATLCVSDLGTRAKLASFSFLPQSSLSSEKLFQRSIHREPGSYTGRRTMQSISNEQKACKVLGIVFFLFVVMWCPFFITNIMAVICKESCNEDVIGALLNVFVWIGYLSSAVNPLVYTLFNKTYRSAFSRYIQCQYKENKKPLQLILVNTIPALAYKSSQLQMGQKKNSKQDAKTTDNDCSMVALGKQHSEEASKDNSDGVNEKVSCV
Chain of wild type human 5-HT2A receptor (psychLight2, PSYLI2 cells) (P28223 with tags, fused parts or gaps): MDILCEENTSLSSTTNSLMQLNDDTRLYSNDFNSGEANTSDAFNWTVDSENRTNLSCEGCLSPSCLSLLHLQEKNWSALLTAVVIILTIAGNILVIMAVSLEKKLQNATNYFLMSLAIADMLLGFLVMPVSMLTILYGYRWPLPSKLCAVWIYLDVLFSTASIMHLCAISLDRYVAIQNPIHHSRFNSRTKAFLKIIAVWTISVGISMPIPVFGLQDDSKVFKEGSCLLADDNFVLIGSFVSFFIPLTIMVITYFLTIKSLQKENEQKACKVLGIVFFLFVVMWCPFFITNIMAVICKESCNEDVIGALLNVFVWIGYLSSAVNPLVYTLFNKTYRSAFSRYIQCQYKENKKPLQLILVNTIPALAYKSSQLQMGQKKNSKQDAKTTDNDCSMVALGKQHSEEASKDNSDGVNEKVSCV
Chain of wild type human 5-HT2A receptor (psychLight2, PSYLI2 cells) (P42212 with tags, fused parts or gaps partner): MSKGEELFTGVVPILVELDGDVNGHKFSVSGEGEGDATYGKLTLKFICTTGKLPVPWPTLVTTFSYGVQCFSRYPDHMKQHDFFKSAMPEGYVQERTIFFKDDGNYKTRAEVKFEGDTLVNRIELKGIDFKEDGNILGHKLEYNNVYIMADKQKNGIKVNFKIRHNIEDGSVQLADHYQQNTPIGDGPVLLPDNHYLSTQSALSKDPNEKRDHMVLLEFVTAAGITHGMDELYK

Question: With `CCN(CC)C(=O)[C@@H]1C=C2c3cccc4ccn(c34)C[C@H]2N(C)C1` [(+)-JRT] as the molecule, how does the Ki [1] read?
Answer: 2 to 184 nM

Question: What about the “Head-twitch response over 20 min (Figure S9)” value (male C57BL/6J mice) of the same molecule?
Answer: 3.9 ± 0.567

Question: And the “Swimming (Figure 6B)” value (male Sprague Dawley rats; 0.3mg/kg IP)?
Answer: 31.70 ± 2.534

Question: And the “Immobility (Figure 6B)” value (male Sprague Dawley rats; 0.3mg/kg IP)?
Answer: 27.20 ± 2.546

Question: And the “Swimming (Figure 6B)” value (male Sprague Dawley rats; 1.0mg/kg IP)?
Answer: 31.50 ± 1.778

Question: What about the “Immobility (Figure 6B)” value (male Sprague Dawley rats; 1.0mg/kg IP) of the same molecule?
Answer: 27.70 ± 1.850

Question: And the “Potency relative to ketamine in the forced swim test” value (male Sprague Dawley rats; lowest effective dose not determined)?
Answer: at least 100 fold

Question: And the “β-arrestin recruitment through 5-HT2A receptor activation” value [2]?
Answer: potent partial agonist; also recorded: not able to recruit β-arrestin through 5-HT2A receptor activation with high efficacy

Question: And the Synapse size ([3]; 1 mg/kg IP)?
Answer: remained unchanged

Question: What about the “Increase in synapse density within the mPFC” value ([3]; single administration 1 mg/kg IP, S3EM) of the same molecule?
Answer: 18%

Question: What about the “Increase in dendritic spine density within the mPFC” value ([3]; single administration 1 mg/kg IP, layer 1, S3EM) of the same molecule?
Answer: 46%

Question: And the EC50 [4]?
Answer: 90 nM

Question: And the Emax ([4]; read-out: psychLight (WT): EMax)?
Answer: 33%

Question: And the “Dendritic spine density, layer 2/3 mPFC (Table S1, matches Fig. 4N)” value ([5]; GH (gentle handling) + JRT 1 mg/kg IP, GH VEH 12.17 ± 0.5278)?
Answer: 11.36 ± 0.8451

Question: And the “Dendritic spine density, layer 2/3 mPFC (Table S1, matches Fig. 4N)” value ([5]; chronic CORT 20 d + JRT 1 mg/kg IP)?
Answer: 10.77 ± 0.5664

Question: What about the “Dendritic spine growth in mature cortical cultures” value ([6]; 1 μM, 24 h, DIV19, compared to vehicle (P < 0.0001) and CLZ (P = 0.0005)) of the same molecule?
Answer: promoted dendritic spine growth

Question: And the “Effect of ketanserin (10 μM) pretreatment on compound-induced dendritic spine density” value ([6]; compound 1 μM)?
Answer: blocks
